The values below come from patent US20240166658A1, “PORPHYRIN DERIVATIVES AND USES THEREOF” (University of Tasmania, priority 2021, published 2024).

Experiment [1] in a line: UV-Vis host-guest titration, association constant. It is filed as binding. As for the experimental part:
(§1) Path length of the quartz cell was 1 cm. For UV-vis titrations, a stock solution of host was prepared (2.2×10^−3 M) in dichloromethane (DCM) and serially diluted to the required concentrations. Working solutions of tetrabutylammonium (TBA) anion salts or guest molecules were prepared in the same manner Host−guest titrations used solutions of guest prepared in the working concentration of host solution, according to the procedure of Thordarson, 2011.
(§2) UV-vis spectroscopic host−guest titrations were performed in accordance with the methodologies of Thordarson, 2011. Solutions of host in dichloromethane were prepared. Solutions of guest were then prepared in the host solution. Aliquots of guest in host solution were added to host solution and sequentially analysed until a known molar equivalent of guest was added. The amount of guest added per aliquot was ascertained by a preliminary screening experiment; strong association constants required smaller molar equivalents so more information could be collected. […] The inverse is true for weaker binding interactions. Molar equivalents between 0.1-5 typically provided adequate information for modelling. The data was then used to simulate binding isotherms using www.supramolecular.org (Hibbert and Thordarson, 2016). The data was fitted to 1:1, 1:2 and 2:1 equilibria making no assumptions about the cooperativity of the binding interactions and modelled using different algorithms. These experiments mainly used the Nelder-Mead (Simplex) method.
(§3) A host solution of host (9) in dichloromethane was monitored using UV-Vis analysis as 0.5-10 equivalents of each PFAS was added. […] The data was processed using Bindfit isotherm simulators using both Nelder-Mead and L-BFGS-B methods (Thordarson, 2011).
(§4) To highlight any potential binding preferences across the PFCAs from the host molecules, triplicates of host−guest addition titrations were performed using host (9) and the TBA salts of the nine different deprotonated PFCAs.
Host (12) was also modelled for secondary binding interactions in the presence of additional guest (Table 9).

Experiment [2] can be described thus: UV-Vis host-guest titration, association constant. It is filed as binding. As for the experimental part:
as §1, §2
UV-Vis spectroscopy binding studies were used to determine the association constant for the host (9)−PFOA complex.
as §3, §4
This is another data set of the same source.

The nature of experiment [3]: PFCA guest response across the nine PFCAs (UV-Vis, RGB, one-way ANOVA variance). As to conditions: dichloromethane. On the procedure: Experiments were performed at concentrations that could be monitored by the naked eye for practical sensing of PFAS in the field. Complexes of hosts (9), (11) and (12) were formed with the nine different perfluorocarboxylic acids (PFCAs) shown in Table 2 above and the colours of each host−PFCA complex were photographed in a lightbox and analysed using ImageJ software RGB analysis. Pixels of the solution were chosen at random to provide an RGB value. Multiple RGB values were recorded for each host−PFCA solution, and an average colour can be produced. From those values an RGB parameter was used to give a response value for modelling (Tahir et al., 2016).
After preliminary screenings, UV-Vis spectra were collected before and after the addition of 1 molar equivalent of each PFCA for each host, and the degree of complexation was noted by shifts in the Soret bands and formation of a peak at ca. 650 nm. To eliminate dilution effects, PFCA guest solutions were prepared in the equivalent concentration of host. If there was a notable host−guest interaction for a particular PFCA, the host−guest binding was investigated with more rigorous UV-Vis experiments, binding studies, and further colour analyses. Throughout these investigations, PFOA was considered the “average” PFCA both because of its position in the range of PFCA sizes and because its prevalence is often an indication of broader PFAS contamination. In any experiment where binding was further investigated for a particular PFCA, it was typically replicated with PFOA for comparison.
One-way factorial ANOVA was used to examine the dependence (or independence) of two or more factors affecting the dependent variable concurrently, in the present case the change in absorption, or the change in RGB response across the tested PFCAs, or across the different hosts. This analysis was used to determine the variance in the responses of each host across the different PFCAs. […]

A short description of experiment [4]: Colorimetric calibration chart, RGB response to known PFOA concentrations. To be noted: PFOA 0.7 ppm, dichloromethane. On the procedure: The host molecules were combined with known concentrations of PFOA to provide RGB colour responses, which were used to create a colorimetric calibration chart that could be trialled as an indicator for estimating the total concentration of a range of any PFCAs. Solutions of each host molecule (1.00×10^−5 M) were prepared in dichloromethane. Solutions of PFOA in dichloromethane were prepared across a range of concentrations (0→16 ppm, 4.00×10^−5 M). Each host (2 mL) was combined with each PFOA concentration (1 mL, final concentration 0→1.33×10^−5 M) and photographed under equivalent lighting conditions. The average colour of each solution was then found using ImageJ RGB analysis, and a colour chart was produced.
For this reason, parametrization of the RGB values can be useful for interpreting results. The RGB response parameter can be calculated using the RGB values of the “blank” host solution (Šafranko et al., 2019) and the effective intensities of the individual RGB values of a sample (Tahir et al., 2016):
Here, H, indicates the values for the host solution, and S, indicates the response for a sample containing a PFCA, so that ΔR, ΔG, and ΔB give the colour differences. The RGB parameter is the response due to the relative difference in the RGB intensities:
The RGB values collected for each host with a range of known concentrations of PFOA in dichloromethane were parameterized and used to determine a relationship between concentration of analyte and RGB response values. […] The relationship between RGB response values and concentrations of PFOA could now be tested for accuracy in determining the concentration of any PFCA.

Setting [5] is: host (9) in dichloromethane, triplicate, TBA salt and acid, Bindfit.
Where [6] appears, read: short, medium and long chain sensor molecules with PFOA.

For the molecule `O=C(Nc1ccccc1-c1c2nc(c(-c3ccccc3NC(=O)C(F)(F)C(F)(F)C(F)(F)C(F)(F)C(F)(F)C(F)(F)C(F)(F)F)c3ccc([nH]3)c(-c3ccccc3NC(=O)C(F)(F)C(F)(F)C(F)(F)C(F)(F)C(F)(F)C(F)(F)C(F)(F)F)c3nc(c(-c4ccccc4NC(=O)C(F)(F)C(F)(F)C(F)(F)C(F)(F)C(F)(F)C(F)(F)C(F)(F)F)c4ccc1[nH]4)C=C3)C=C2)C(F)(F)C(F)(F)C(F)(F)C(F)(F)C(F)(F)C(F)(F)C(F)(F)F` [host (9), α,α,α,α-5,10,15,20-tetrakis(2-(pentadecafluorooctanoylamino)phenyl)porphyrin], the “K value (averaged association constant Ka)” value in experiment [1] (setting [5]) is 1010; in experiment [2] (setting [5]) it was 109574. Moreover, in experiment [2] (host 1.01×10^−6 M in dichloromethane, TBAPFO aliquots, 1:1, Nelder-Mead and L-BFGS-B), the “association constant (Ka)” value was roughly 2.8e+06 M⁻¹. Also, the K in experiment [2] (setting [6]) turned out to be 1.77e+06 M⁻¹. The “colorimetric response to all nine PFCAs” value in experiment [3] is reported as “colorimetric response was visible”. In addition, the “ΔE between host and lowest PFOA concentration” value in experiment [4] came to 11.
On to `O=C(Nc1ccccc1-c1c2nc(c(-c3ccccc3NC(=O)C(F)(F)C(F)(F)C(F)(F)C(F)(F)C(F)(F)C(F)(F)C(F)(F)C(F)(F)C(F)(F)C(F)(F)C(F)(F)F)c3ccc([nH]3)c(-c3ccccc3NC(=O)C(F)(F)C(F)(F)C(F)(F)C(F)(F)C(F)(F)C(F)(F)C(F)(F)C(F)(F)C(F)(F)C(F)(F)C(F)(F)F)c3nc(c(-c4ccccc4NC(=O)C(F)(F)C(F)(F)C(F)(F)C(F)(F)C(F)(F)C(F)(F)C(F)(F)C(F)(F)C(F)(F)C(F)(F)C(F)(F)F)c4ccc1[nH]4)C=C3)C=C2)C(F)(F)C(F)(F)C(F)(F)C(F)(F)C(F)(F)C(F)(F)C(F)(F)C(F)(F)C(F)(F)C(F)(F)C(F)(F)F` [host (12), α,α,α,α-5,10,15,20-tetrakis(2-(tricosafluorododecanoylamino)phenyl) porphyrin], for which the figures for the K in experiment [1] (1 Host:1 Guest binding mode), in experiment [2] (1 Host:1 Guest binding mode) and in experiment [2] (setting [6]) were 3.76 × 10^4, 1.58 × 10^5 and 1.67e+06 M⁻¹, respectively. The values for the K11 in experiment [1] (1 Host:2 Guest binding mode), in experiment [1] (2 Host:1 Guest binding mode) and in experiment [2] (1 Host:2 Guest binding mode) were 1.76 × 10^6, 2.37 × 10^5 and 1.49 × 10^7, respectively. Moreover, the K12 in experiment [1] (1 Host:2 Guest binding mode) is 7.92 × 10^4; in experiment [2] (1 Host:2 Guest binding mode) it was 1.17 × 10^2. The K21 in experiment [1] (2 Host:1 Guest binding mode) is listed as 6.69 × 10^4. The “colorimetric response to all nine PFCAs” value in experiment [3] is “provided a colorimetric response”. Moreover, in experiment [4], the “ΔE between host and lowest PFOA concentration” value is 24.
